The values that follow come from US20240052421A1, “METHOD OF IDENTIFYING AND TREATING MITOCHONDRIAL SUBTYPE TUMORS” (The Trustees of Columbia University in the City of New York, priority 2020, published 2024).

What all share (type): cell-based, human
One test concerns GBM PDCs. In words: Viability of GBM PDCs (MTC and GPM) treated with inhibitors of glycolysis. The following applies: nine MTC and nine GPM PDCs, 72 h treatment. An excerpt:
FIGS. 9A-K show MTC PDCs are distinctly sensitive to mitochondrial inhibition. […] Data are mean±s.d. of n≥3 replicates for each PDC from one representative experiment. […] Middle: correlation analysis of MTC (blue) and GPM (red) activity in PDCs (n=25 MTC PDCs and n=21 GPM PDCs; Spearman's correlation, p=−0.51, P=0.0003). Bottom: enrichment of fCNV gain and loss of mitochondrial and glycolytic-related genes in MTC PDCs (n=25) and GPM PDCs (n=21). The number of genes amplified/deleted in each tumor is color coded (amplifications, red to white; deletions, blue to white). FIGS. 9F and G show viability curves of nine MTC PDCs and nine GPM PDCs each derived from an independent patient treated with either FX-11 (F) or DEAB (G). Data are mean±s.d. from n≥4 replicates for each PDC from one representative experiment. […] Data are mean±s.d. of one representative experiment assessed by n=30 replicates for each PDC; **P=0.0022. […] In all experiments, significance was evaluated by two-tailed t-test, unequal variance. […]
(§1) Compound treatment of PDCs. […] Viability was determined using CellTiterGlo assay reagent (Promega, no. G7570) and the GloMax-Multi+Microplate Multimode Reader (Promega).

In another test the test system is MTC PDCs. Kind of test: Viability of MTC patient-derived cells (PDCs) after compound treatment, CellTiterGlo. As to conditions: 13 MTC PDCs, 72 h treatment, serial dilutions.
Text: (§2) FIGS. 9A-K show MTC PDCs are distinctly sensitive to mitochondrial inhibition. […] Data are mean±s.d. of n≥3 replicates for each PDC from one representative experiment. […] Middle: correlation analysis of MTC (blue) and GPM (red) activity in PDCs (n=25 MTC PDCs and n=21 GPM PDCs; Spearman's correlation, p=−0.51, P=0.0003). Bottom: enrichment of fCNV gain and loss of mitochondrial and glycolytic-related genes in MTC PDCs (n=25) and GPM PDCs (n=21). The number of genes amplified/deleted in each tumor is color coded (amplifications, red to white; deletions, blue to white). FIGS. 9F and G show viability curves of nine MTC PDCs and nine GPM PDCs each derived from an independent patient treated with either FX-11 (F) or DEAB (G). Data are mean±s.d. from n≥4 replicates for each PDC from one representative experiment. […] Representative MRs with differential activity (n=304 tumors, n=2,799 cells from dataset 1, n=9,652 cells from dataset 2 and n=4,916 cells from dataset 3; two-sided MWW test, FDR<0.01) in TCGA and at least two out of three single-cell datasets are shown (two-sided MWW-GST test, log it(NES)>0.58, FDR<0.01). Nodes represent MRs and target genes, while lines represent interactions. […] Data are mean±s.d. from one representative experiment including n=3 independent infections for each PDC; **P=0.0010 and 0.0013 for PDC-002 shRNA1 and shRNA2 versus vector, respectively; **P=0.0030 and 0.0023 for PDC-026 shRNA1 and shRNA2 versus vector, respectively; *P=0.0285 for PDC-078 shRNA1 versus vector; *P=0.0142 for PDC-021 shRNA1 versus vector. […] Data are mean±s.d. of one representative experiment assessed by n=30 replicates for each PDC; **P=0.0022. […] Data are mean±s.d. of n=3 independent experiments for each PDC, each performed in triplicate. Bars on the right-hand side of the graph indicate mean±s.e.m. of values observed in the two sets of PDCs; n=7 MTC PDCs and n=7 GPM PDCs, each derived from an independent patient; ***P=0.00006. Experiments in A-D, F, G, I and J were repeated two times with similar results. In all experiments, significance was evaluated by two-tailed t-test, unequal variance.
(§3) Therefore, we tested the sensitivity of 13 MTC and ten GPM PDCs to compounds that interfere with OXPHOS and mitochondrial metabolism. […] Conversely, GPM PDCs were resistant to all four compounds (FIG. 9A-D). […] Furthermore, the complementary fCN gains and losses of MTC and GPM gene sets robustly correlated with mitochondrial inhibitor sensitivity score (FIG. 9E). Treatment of GBM PDCs with inhibitors of glycolysis (DEAB and FX-11)^51 had no effect regardless of the metabolic class of PDC (FIGS. 9F,G).
as §1

The subject of a further test is GPM PDCs. In words: Viability of GPM patient-derived cells (PDCs) after compound treatment, CellTiterGlo. The following applies: ten GPM PDCs, 72 h treatment, serial dilutions.
Text: as §2, §3, §1
A general note: In ATP-based viability assays light output follows the ATP content of the culture.

The next test concerns mitochondrial PDOs. In words: Viability of mitochondrial GBM patient-derived organoids (PDOs), serial dilution of mitochondrial inhibitors. Here is the method:
(§4) The objective of the study is to test the activity of IM-156, a novel mitochondrial inhibitor currently in clinical testing, in vitro in 25 GBM-PDO organoids previously classified molecularly as mitochondrial (MTC, 13 organoids) or glycolytic/plurimetabolic (GPM, 12 organoids) plus 2 GBM-PDO harboring a FGFR3-TACC3 (F3T3) fusion.
(§5) Using IM-156 (0 μM -15 μM, 1/3 dilution, 7 points and 0-45 μM, 1/3 dilution, 10 points), […], and 2 FGFR3-TACC3 positive GBM PDOs were tested. Seventy-two hours later viability was assessed and the half-maximal inhibitory concentration was calculated. The activity (IC50) of IM-156 was compared with IACS-010759, Metformin, Tigecycline, and Menadione, 4 inhibitors of mitochondrial activity/respiration. […] FGFR3-TACC3 fusion expressing cells had been previously characterized as mitochondrial GBM.

For test [1], the system named is glycolytic/plurimetabolic PDOs. In words: Viability of glycolytic/plurimetabolic GBM PDOs, serial dilution of mitochondrial inhibitors. The procedure:
as §4, §5

For another test, the system named is FGFR3-TACC3 PDOs. In words: Viability of FGFR3-TACC3 positive GBM PDOs, serial dilution of mitochondrial inhibitors. The procedure:
as §4, §5

Setting [2] is: 15 μM as highest concentration, 72 h.

SMILES strings stand for the structures.

As to `CCN(CC)c1ccc(C=O)cc1` [DEAB], the “effect on viability of GBM PDCs regardless of metabolic class” value in the test on GBM PDCs was “no effect”.

In the case of `CCCc1c(O)c(O)c(C(=O)O)c2cc(Cc3ccccc3)c(C)cc12` [FX-11], in the test with GBM PDCs, the “effect on viability of GBM PDCs regardless of metabolic class” value was “no effect”.

As for `Cc1nc(-c2nc(-c3ccc(OC(F)(F)F)cc3)no2)nn1Cc1cccc(N2CCC(S(C)(=O)=O)CC2)c1` [IACS-010759], the “effect on viability of MTC PDCs” value with MTC PDCs is “reduced the viability”. Moreover, in the test with GPM PDCs, the “effect on viability of GPM PDCs” value is recorded as “resistant”.

One may read the IC50 as the concentration at which inhibition is half-maximal. As to `NC(=Nc1ccc(OC(F)(F)F)cc1)N=C(N)N1CCCC1` [IM-156], the “number of mitochondrial PDOs in which the drug was effective” value in the test on mitochondrial PDOs (setting [2]) was 12 out of 14. Also, in the test with mitochondrial PDOs (MTC versus GPM patient-derived tumor models), the “effectiveness in MTC models as opposed to GPM subtype” value was “significantly more effective”. Further, the IC50 with mitochondrial PDOs (mitochondrial PDOs, 15 μM as highest concentration, viability at 72 h, read-out: Median IC50) amounted to 6.38 µM. In addition, the “number of glycolytic/plurimetabolic PDOs in which the drug was effective” value in test [1] (setting [2]) is 2 out of 10. Moreover, the “change in sensitivity of glycolytic/plurimetabolic GBM PDOs on increasing maximum concentration” value in test [1] (maximum concentration raised from 15 μM to 45 μM) is listed as “significant increase in sensitivity”. Moreover, in the test with FGFR3-TACC3 PDOs (setting [2]), the “number of FGFR3-TACC3 PDOs in which the drug was effective” value is on record as 2 out of 2. In the test on FGFR3-TACC3 PDOs (2 FGFR3-TACC3 positive GBM PDOs), the “sensitivity of FGFR3-TACC3 fusion expressing cells” value is recorded as “distinct sensitivity”.

Consider `CC1=CC(=O)c2ccccc2C1=O` [menadione], for which the “effect on viability of MTC PDCs” value with MTC PDCs is “reduced the viability”. In the test on GPM PDCs, the “effect on viability of GPM PDCs” value was “resistant”.

With `CN(C)C(=N)N=C(N)N` [metformin], the “effect on viability of MTC PDCs” value in the test on MTC PDCs is listed as “reduced the viability”. Also, the “effect on viability of GPM PDCs” value in the test with GPM PDCs is “resistant”.

As to `CN(C)c1cc(NC(=O)CNC(C)(C)C)c(O)c2c1C[C@H]1C[C@H]3[C@H](N(C)C)C(O)=C(C(N)=O)C(=O)[C@@]3(O)C(O)=C1C2=O` [tigecycline], in the test with MTC PDCs, the “effect on viability of MTC PDCs” value was “reduced the viability”. Moreover, the “effect on viability of GPM PDCs” value with GPM PDCs is “resistant”.
